The record followed here is US4443475A, “Amides of acyl-carnitines, process for preparing same and pharmaceutical compositions containing such amides” (priority 1979, dated 1984).

Tested on in one data set: not listed separately
The experiment in a line: Effect antagonizing adrenaline (mortality). The following applies: Mus musculus, ip; mice, 100 mg/kg i.p., 36 hours; read-out: Antiadrenaline Effects, % mortality reduction. It is filed as in vivo. How it is done: (d) Effect antagonizing adrenaline
Male Albino Swiss mice weighing 12-22 g, divided into groups of 10, were treated with the compounds under investigation or with saline (controls) i.p. and then 30 minutes later with adrenaline (treated) at a dose capable of causing death in 100% of the control animals due to ventricular fibrillation and cardiac lesions ensuing from increased heart rate, pressure and oxygen consumption by the myocardium.
Mortality was monitored for 36 hours and the effect of the compounds was expressed in % of survivals versus treated animals.
Regarding `CCC(=O)OC(CC(=O)NC(CC(=O)OC)C(=O)OC)C[N+](C)(C)C` (stereo not drawn), the responders at 100 mg/kg came out at 70%.
With `CCC(=O)OC(CC(=O)NC(CC(C)C)C(=O)OC)C[N+](C)(C)C` (stereo not drawn) [propionyl carnitine amide of leucine methyl ester], the responders at 100 mg/kg came out at 70%.

Still in this data set, the particulars now being: Mus musculus, ip; mice, 150 mg/kg i.p., 36 hours; read-out: Antiadrenaline Effects, % mortality reduction.
In the case of `COC(=O)CCC(NC(=O)CC(C[N+](C)(C)C)OC(C)=O)C(=O)OC` (stereo not drawn) [COCH3; (1,3-dicarbomethoxy propyl) amino], the responders at 150 mg/kg came to 40%.

Tested on in a further data set: not listed separately
In words: Anti-arrhythmic (antifibrillation) effect, aconitine-induced arrhythmia. The data set is classed as in vivo, mice. The following applies: Mus musculus, ip, read-out: Antifibrillation Effects, % reduction. As to the method:
(c) Anti-arrhythmic effect
In order to evaluate by means of in vivo test the anti-arrhythmic effect exerted by the various carnitine derivatives in addition to and versus the usual in vitro tests, the method described by Nwangwu et al. (Arch. Int. Pharmacodyn., 1977, v. 229, 219) was employed.
This method is carried out by injecting a solution of aconitine into the caudal […] and recording the time of the appearance of arrhythmia and tachycardia from 2 to 60 minutes following the administration of the compounds under investigation.
In the case of `CCC(=O)OC(CC(=O)NC(CC(=O)OC)C(=O)OC)C[N+](C)(C)C` (stereo not drawn), the inhibition in vivo at 40 mg/kg worked out at 70%.
Regarding `COC(=O)CCC(NC(=O)CC(C[N+](C)(C)C)OC(C)=O)C(=O)OC` (stereo not drawn) [COCH3; (1,3-dicarbomethoxy propyl) amino], the inhibition in vivo at 20 mg/kg worked out at 65%.
As for `CCC(=O)OC(CC(=O)NC(CC(C)C)C(=O)OC)C[N+](C)(C)C` (stereo not drawn) [propionyl carnitine amide of leucine methyl ester], the inhibition in vivo at 50 mg/kg was 75%.

The next data set relates to isolated rabbit heart. The experiment in a line: Inotropic effect on isolated rabbit heart (Langendorff) after anoxia. The following applies: Oryctolagus cuniculus, 10 min; 10^-5 gl^-1, isolated rabbit heart, 10 minutes after end of anoxia; read-out: Inotropic Effect, % of controls (increased percentage versus controls). How it is done:
Rabbit hearts isolated by Langendorff's method were perfused in a Ringer solution oxygenated at 38.2° C. The isometric […], ECG and coronary flow were recorded using a "Battaglia-Rangoni" polygraph.
Metabolic damage in the heart muscle was induced by removing the oxygen from the perfusion liquid until contractile force was reduced by 80%.
In these conditions of prolonged anoxia myocardial […] glycolysis was slowed down, accompanied by accumulation of catabolic acids due to storage of pyruvic acid and its conversion to lactic acid which cannot be utilized owing to the depression of the pyridinic enzymes, such as lacticodehydrogenase. This affects anaerobic glycolysis involving an ever increasing number of enzymes, with a progressive and increasingly more critical exhaustion of the myocardium.
Thus there is a whole series of cardiac muscle fatigue levels recorded by the pattern of the parameters taken into account i.e. contractile force, coronary output, heart rate and cardiac rhythm. As soon as the contractile force was reduced by 80%, the perfusion liquid was once again oxygenated without adding other compounds (controls) or with the addition of the compounds under investigation at various concentrations.
Turning to `CCC(=O)OC(CC(=O)NC(CC(=O)OC)C(=O)OC)C[N+](C)(C)C` (stereo not drawn), the activation at 0.01 µg/mL was 50%.
As to `COC(=O)CCC(NC(=O)CC(C[N+](C)(C)C)OC(C)=O)C(=O)OC` (stereo not drawn) [COCH3; (1,3-dicarbomethoxy propyl) amino], the activation at 0.01 µg/mL is 40%.
In the case of `CCC(=O)OC(CC(=O)NC(CC(C)C)C(=O)OC)C[N+](C)(C)C` (stereo not drawn) [propionyl carnitine amide of leucine methyl ester], the activation at 0.01 µg/mL came to 45%.

Tested on in a further data set: not listed separately
In words: Antagonism to cardiazol (protection from death by convulsions). The data set is classed as in vivo. The following applies: ip; rat, 40 mg/kg i.p. (head), 5 hours.
Compound `CCC(=O)OC(CC(=O)NC(CC(=O)OC)C(=O)OC)C[N+](C)(C)C` (stereo not drawn) had a responders at 40 mg/kg of 51%.

The data set is the same for the next values; noted with them: ip; rat, 50 mg/kg i.p. (head), 5 hours.
The compound `COC(=O)CCC(NC(=O)CC(C[N+](C)(C)C)OC(C)=O)C(=O)OC` (stereo not drawn) [COCH3; (1,3-dicarbomethoxy propyl) amino] displayed a responders at 50 mg/kg of 70%.
With `CCC(=O)OC(CC(=O)NC(CC(C)C)C(=O)OC)C[N+](C)(C)C` (stereo not drawn) [propionyl carnitine amide of leucine methyl ester], the responders at 50 mg/kg came to 32%.

Tested on in a further data set: not listed separately
In words: Acute toxicity (LD50), Weil method. To be noted: mouse, in vivo, ip, mice (Table I title); read-out: LD50 i.p.
As for `CCC(=O)OC(CC(=O)NC(CC(=O)OC)C(=O)OC)C[N+](C)(C)C` (stereo not drawn), the LD50 stood at 590 mg/kg.
Take `COC(=O)CCC(NC(=O)CC(C[N+](C)(C)C)OC(C)=O)C(=O)OC` (stereo not drawn) [COCH3; (1,3-dicarbomethoxy propyl) amino]: the LD50 was found to be 1000 mg/kg.
With `CCC(=O)OC(CC(=O)NC(CC(C)C)C(=O)OC)C[N+](C)(C)C` (stereo not drawn) [propionyl carnitine amide of leucine methyl ester], the LD50 came out at 600 mg/kg.

The data set is the same for the next values; noted with them: mouse, in vivo; oral, mice (Table I title); read-out: LD50 oral.
In the case of `CCC(=O)OC(CC(=O)NC(CC(=O)OC)C(=O)OC)C[N+](C)(C)C` (stereo not drawn), the LD50 is 1800 mg/kg.
As for `COC(=O)CCC(NC(=O)CC(C[N+](C)(C)C)OC(C)=O)C(=O)OC` (stereo not drawn) [COCH3; (1,3-dicarbomethoxy propyl) amino], the LD50 turned out to be 3600 mg/kg.
On the same count and under the same terms, with `CCC(=O)OC(CC(=O)NC(CC(C)C)C(=O)OC)C[N+](C)(C)C` (stereo not drawn) [propionyl carnitine amide of leucine methyl ester] the figure was 2350 mg/kg.

Tested on in the next data set: not listed separately
The experiment in a line: Effect on spontaneous motility (ANIMEX). The following applies: Mus musculus, ip, 0.5 h; mice, 25 mg/kg i.p.; control 850 ± 65 in 30 min; read-out: Spontaneous motility, % increase versus controls. It is filed as in vivo. How it is done: (g) Effect on spontaneous motility
Male Albino Swiss mice weighing 18-22 g, were divided into two groups of 5 and caged for at least 1 week. One group received the compounds under investigation and the other group (control group) was given the vehicle. The animals remained in their cages and were placed on the ANIMEX (Farad-Sweden) apparatus which recorded the movements for two 30-minute intervals beginning from 5 minutes after administration of the compounds.
Table II gives the results expressed as percentage variation in the number of spontaneous movements of the treated animals versus those of the control animals.
With `CCC(=O)OC(CC(=O)NC(CC(=O)OC)C(=O)OC)C[N+](C)(C)C` (stereo not drawn), the change in vivo at 25 mg/kg is 59%.
In the case of `COC(=O)CCC(NC(=O)CC(C[N+](C)(C)C)OC(C)=O)C(=O)OC` (stereo not drawn) [COCH3; (1,3-dicarbomethoxy propyl) amino], the change in vivo at 25 mg/kg came out at 19%.

Staying with this data set, now noted: Mus musculus, ip, 0.5 h; mice, 50 mg/kg i.p.; control 850 ± 65 in 30 min; read-out: Spontaneous motility, % increase versus controls.
In the case of `CCC(=O)OC(CC(=O)NC(CC(C)C)C(=O)OC)C[N+](C)(C)C` (stereo not drawn) [propionyl carnitine amide of leucine methyl ester], the change in vivo at 50 mg/kg worked out at 62%.

Tested on in another data set: not listed separately
In words: Interaction with barbiturates (EVIPAN, loss of righting reflex). The data set is classed as in vivo. To be noted: Mus musculus, ip; mice, 20 mg/kg i.p. (head), EVIPAN 75 mg/kg; read-out: Barbituric interaction, % reduction of RR (righting reflex) loss.
For `COC(=O)CCC(NC(=O)CC(C[N+](C)(C)C)OC(C)=O)C(=O)OC` (stereo not drawn) [COCH3; (1,3-dicarbomethoxy propyl) amino], the inhibition in vivo at 20 mg/kg was found to be 40%.

The same data set, now with this note: Mus musculus, ip; mice, 100 mg/kg i.p. (head), EVIPAN 75 mg/kg; read-out: Barbituric interaction, % reduction of RR (righting reflex) loss.
Consider `CCC(=O)OC(CC(=O)NC(CC(=O)OC)C(=O)OC)C[N+](C)(C)C` (stereo not drawn), for which the inhibition in vivo at 100 mg/kg stood at 25%.
With `CCC(=O)OC(CC(=O)NC(CC(C)C)C(=O)OC)C[N+](C)(C)C` (stereo not drawn) [propionyl carnitine amide of leucine methyl ester], the inhibition in vivo at 100 mg/kg was found to be 31%.

As usually defined, the LD50 is the dose expected to kill half of the subjects tested.
